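Five compound concentrations were applied to cells in 96-well plates for 48 hours; endpoints were derived by simple linear interpolation of the resulting dose-response curve. GI50 = concentration required for 50% inhibition of growth.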 Active and inactive are the calls of the source. Rule as the data show it: active = GI50 up to about 1.1 µM and inactive = higher.
How the values were obtained:
Assay in all cases: NCI anticancer screen, dose series, 48 h
786-0 = test system: 786-0
A498 = test system: A498
ACHN = test system: ACHN
BT-549 = test system: BT-549
CAKI-1 = test system: CAKI-1
CCRF-CEM = test system: CCRF-CEM
COLO 205 = test system: COLO 205
DU-145 = test system: DU-145
EKVX = test system: EKVX
HCC 2998 = test system: HCC 2998
HCT-116 = test system: HCT-116
HCT-15 = test system: HCT-15
HL-60 = test system: HL-60
HOP-62 = test system: HOP-62
HOP-92 = test system: HOP-92
HT-29 = test system: HT-29
Hs-578T = test system: Hs-578T
IGROV-1 = test system: IGROV-1
K562 = test system: K562
KM12 = test system: KM12
LOX IMVI = test system: LOX IMVI
M14 = test system: M14
MCF7 = test system: MCF7
MDA-MB-231 = test system: MDA-MB-231
MDA-MB-435 = test system: MDA-MB-435
MDA-N = test system: MDA-N
MOLT-4 = test system: MOLT-4
Malme-3M = test system: Malme-3M
NCI-H226 = test system: NCI-H226
NCI-H23 = test system: NCI-H23
NCI-H460 = test system: NCI-H460
NCI-H522 = test system: NCI-H522
NCI/ADR-RES = test system: NCI/ADR-RES
OVCAR-3 = test system: OVCAR-3
OVCAR-4 = test system: OVCAR-4
OVCAR-5 = test system: OVCAR-5
OVCAR-8 = test system: OVCAR-8
PC-3 = test system: PC-3
RPMI-8226 = test system: RPMI-8226
RXF 393 = test system: RXF 393
SF-268 = test system: SF-268
SF-295 = test system: SF-295
SF-539 = test system: SF-539
SK-MEL-28 = test system: SK-MEL-28
SK-MEL-2 = test system: SK-MEL-2
SK-MEL-5 = test system: SK-MEL-5
SK-OV-3 = test system: SK-OV-3
SN12C = test system: SN12C
SNB-19 = test system: SNB-19
SNB-75 = test system: SNB-75
SW-620 = test system: SW-620
T47D = test system: T47D
TK-10 = test system: TK-10
U-251 = test system: U-251
UACC-257 = test system: UACC-257
UACC-62 = test system: UACC-62
UO-31 = test system: UO-31
A549 = test system: A549

For `O=S1(=O)c2ccccc2-c2nccc3ccnc1c23`, the GI50 (786-0) was 25.5 µM (inactive), the GI50 (A498) was 27.5 µM (inactive) and the GI50 (ACHN) was 8.57 µM (inactive). The GI50 (BT-549) was 3.77 µM (inactive), the GI50 (CAKI-1) was 15.3 µM (inactive) and the GI50 (CCRF-CEM) was 4.02 µM (inactive). For the same compound, the GI50 (COLO 205) was 3.99 µM (inactive), the GI50 (DU-145) was 11.3 µM (inactive) and the GI50 (EKVX) was 15.4 µM (inactive). The GI50 (HCC 2998) was 12.8 µM (inactive), the GI50 (HCT-116) was 12.9 µM (inactive) and the GI50 (HCT-15) was 7.87 µM. For the same compound, the GI50 (HL-60) was 4.76 µM (inactive), the GI50 (HOP-62) was 40.7 µM (inactive) and the GI50 (HOP-92) was 24.3 µM (inactive). For the same compound, the GI50 (HT-29) was 5.58 µM (inactive), the GI50 (Hs-578T) was 32.1 µM (inactive) and the GI50 (IGROV-1) was 7.67 µM (inactive). The GI50 (K562) was 4.33 µM (inactive), the GI50 (KM12) was 22.8 µM (inactive) and the GI50 (LOX IMVI) was 12.6 µM (inactive). For the same compound, the GI50 (M14) was 19.1 µM (inactive), the GI50 (MCF7) was 6.4 µM (inactive) and the GI50 (MDA-MB-231) was 17.8 µM (inactive). For the same compound, the GI50 (MDA-MB-435) was 11.9 µM (inactive), the GI50 (MDA-N) was 7.87 µM (inactive) and the GI50 (MOLT-4) was 2.72 µM (inactive). For the same compound, the GI50 (Malme-3M) was 21.8 µM (inactive), the GI50 (NCI-H226) was 43.5 µM (inactive) and the GI50 (NCI-H23) was 14.6 µM (inactive). For the same compound, the GI50 (NCI-H460) was 13.1 µM (inactive), the GI50 (NCI-H522) was 8.07 µM (inactive) and the GI50 (NCI/ADR-RES) was 20.8 µM (inactive). For the same compound, the GI50 (OVCAR-3) was 10.3 µM (inactive), the GI50 (OVCAR-4) was 37.9 µM (inactive) and the GI50 (OVCAR-5) was 41.2 µM (inactive). For the same compound, the GI50 (OVCAR-8) was 15 µM (inactive), the GI50 (PC-3) was 7.31 µM (inactive) and the GI50 (RPMI-8226) was 16.2 µM (inactive). For the same compound, the GI50 (RXF 393) was 34 µM (inactive), the GI50 (SF-268) was 23.5 µM (inactive) and the GI50 (SF-295) was 25 µM (inactive). For the same compound, the GI50 (SF-539) was 8.57 µM (inactive), the GI50 (SK-MEL-28) was 55.6 µM (inactive) and the GI50 (SK-MEL-2) was 28.7 µM (inactive). For the same compound, the GI50 (SK-MEL-5) was 4.82 µM (inactive), the GI50 (SK-OV-3) was 56.9 µM (inactive) and the GI50 (SN12C) was 17.8 µM (inactive). For the same compound, the GI50 (SNB-19) was 23.2 µM (inactive), the GI50 (SNB-75) was 27.7 µM (inactive) and the GI50 (SW-620) was 7.23 µM (inactive). For the same compound, the GI50 (T47D) was 29.4 µM (inactive), the GI50 (TK-10) was 20.8 µM (inactive) and the GI50 (U-251) was 28.1 µM (inactive). The GI50 (UACC-257) was 28.5 µM (inactive), the GI50 (UACC-62) was 7.59 µM (inactive) and the GI50 (UO-31) was 8.24 µM (inactive).
In the case of `S=C(N/N=C\C=N/NC(=S)N1CCCCCC1)N1CCCCCC1`, the GI50 (786-0) is reported as 14.3 µM (inactive), the GI50 (A498) is reported as 57.3 µM (inactive) and the GI50 (A549) is reported as 6.85 µM (inactive). The GI50 (ACHN) was 8.59 µM (inactive), the GI50 (BT-549) was > 100 µM (inactive) and the GI50 (CAKI-1) was > 26.7 µM (inactive). The GI50 (COLO 205) was 15.9 µM (inactive), the GI50 (DU-145) was 9.31 µM (inactive) and the GI50 (EKVX) was > 57.3 µM (inactive). For the same compound, the GI50 (HCC 2998) was > 64.9 µM (inactive), the GI50 (HCT-116) was 7.73 µM (inactive) and the GI50 (HCT-15) was 8.02 µM. For the same compound, the GI50 (HOP-62) was 9.12 µM (inactive), the GI50 (HOP-92) was 59 µM (inactive) and the GI50 (HT-29) was 7.28 µM (inactive). For the same compound, the GI50 (Hs-578T) was 32.8 µM (inactive), the GI50 (IGROV-1) was 26 µM (inactive) and the GI50 (K562) was 9.14 µM (inactive). For the same compound, the GI50 (KM12) was 18.7 µM (inactive), the GI50 (LOX IMVI) was 13.5 µM (inactive) and the GI50 (M14) was 18.1 µM (inactive). For the same compound, the GI50 (MCF7) was 14.3 µM (inactive), the GI50 (MDA-MB-231) was > 31.5 µM (inactive) and the GI50 (MDA-MB-435) was 42.8 µM (inactive). The GI50 (MDA-N) was > 68.1 µM (inactive), the GI50 (MOLT-4) was 7.1 µM (inactive) and the GI50 (Malme-3M) was 22.2 µM (inactive). The GI50 (NCI-H226) was 28.6 µM (inactive), the GI50 (NCI-H23) was > 31.1 µM (inactive) and the GI50 (NCI-H460) was 3.93 µM (inactive). The GI50 (NCI-H522) was 8.07 µM (inactive), the GI50 (NCI/ADR-RES) was 15.6 µM (inactive) and the GI50 (OVCAR-3) was 13.8 µM (inactive). For the same compound, the GI50 (OVCAR-5) was > 100 µM (inactive), the GI50 (OVCAR-8) was 4.65 µM (inactive) and the GI50 (PC-3) was 12.2 µM (inactive). For the same compound, the GI50 (RPMI-8226) was > 100 µM (inactive), the GI50 (RXF 393) was 20.6 µM (inactive) and the GI50 (SF-268) was 10.5 µM (inactive). The GI50 (SF-295) was 7.73 µM (inactive), the GI50 (SF-539) was 64.9 µM (inactive) and the GI50 (SK-MEL-28) was > 100 µM (inactive). For the same compound, the GI50 (SK-MEL-2) was 17.1 µM (inactive), the GI50 (SK-MEL-5) was 14.2 µM (inactive) and the GI50 (SK-OV-3) was 25.5 µM (inactive). For the same compound, the GI50 (SN12C) was > 100 µM (inactive), the GI50 (SNB-19) was 34.2 µM (inactive) and the GI50 (SNB-75) was 22.5 µM (inactive). For the same compound, the GI50 (SW-620) was 6.78 µM (inactive), the GI50 (T47D) was 1.44 µM (inactive) and the GI50 (TK-10) was 57.9 µM (inactive). For the same compound, the GI50 (U-251) was 5.21 µM (inactive), the GI50 (UACC-257) was > 61.9 µM (inactive) and the GI50 (UACC-62) was 21.2 µM (inactive). The GI50 (UO-31) was 8.22 µM (inactive).
